# Tests used:
# Raf-1 [1] = experiment: Raf-1 activity after co-expression with KSR in COS-7 cells; format: cell-based, human (Raf-1 expressed in COS-7 cells)
# Protocol: Some studies used untagged KSR (n=4) and yielded identical results. At 60 hours post-transfection, cells were lysed with RIPA buffer (NP-40 buffer containing 0.1% SDS and 0.1% deoxy cholate). […] […]. The samples were boiled for 5 min, resolved with SDS-PAGE (7.5%) and autoradiographed.
# […]. After 30 min, the reaction was stopped by addition of Laemmli sample buffer and phosphorylated MBP were resolved by 15% SDS-PAGE, prior to autoradiography.
# ; a kind gift of Dr. Natalie Ahn) or 1.25 μg recombinant human MEK1 (Santa Cruz), 0.625 μg recombinant human ERK1 (UBI) and myelin basic protein (MBP). After 20-30 min, the reaction was stopped by addition of SDS sample buffer. […]
# [2] = test system: ceramide-activated protein kinase; experiment: Ceramide-activated protein kinase activity (EGFR peptide) in EL-4 cell fractions; details: 10 nM to 1 μM
# Protocol: Effect of IL-1β on ceramide-activated protein kinase activity. […] Homogenates were centrifuged at 500×g for 5 minutes to remove nuclei and at 200,000×g for 30 minutes to prepare microsomal membranes. Membranes were resuspended into homogenizing buffer (2.2 μg membrane protein μl^-1). For assay of kinase activity, the reaction mixture contained 20 μl of microsomal membrane, 40 μl EGFR peptide (4 mg ml^-1 in 25 mM Hepes, pH 7.4) and 100 μl buffer (50 mM HEPES, pH 7.4, 20 mM MgCl2). Phosphorylation was initiated at 22° C. by addition of 40 μl [γ-^32 P] ATP (100 μM final concentration) and terminated at the indicated times by addition of 40 μl of 0.5 M ATP in 90% formic acid. Phosphorylated peptide was eluted from a C18 Sep pak cartridge (Millipore), lyophilized, and resolved by C18 reverse phase HPLC using a linear gradient of acetonitrile. […] All assays were performed under conditions determined as linear for time and enzyme concentration. Enzyme activity was determined from the percent conversion of substrate to product and the specific radioactivity of [γ-^32 P] ATP. […] Values (mean±range) represent duplicate determinations from two experiments.
# Activity was measured by the transfer of ^32 P from the γ-position of ATP to EGFR peptide (AA 663-681 of the EGFR). The effect of IL-1β on kinase activity was determined using microsomal membranes derived from cells stimulated with IL-1β.
# [3] = test system: ceramide-activated protein kinase; experiment: EGFR peptide phosphorylation by kinase in A-431 microsomal membranes / postnuclear supernatant; format: biochemical, human (A-431 epidermoid carcinoma cells)
# Protocol: Kinetics of ^32 Pi incorporation into the EGFR peptide. […] The reaction was initiated by addition of 50 μl of [γ-^32 P]ATP (150 μM final concentration) and terminated by addition of 50 μl of 0.5 M ATP in 90% (vol/vol) formic acid. Samples were spotted on phosphocellulose paper, washed with 1 M acetic acid/4 mM pyrophosphate, and ^32 P incorporation was measured by liquid-scintillation counting, as described. A boiled protein blank was subtracted from each data value. The data (means) represent duplicate samples from one of two similar experiments. […]
# Kinetics of ceramide-induced ^32 Pi incorporation into EGFR peptide. Peptide phosphorylation was done as described in FIG. 2 in the absence (.smallcircle.) or presence (.circle-solid.) of 0.5 μM C8 -ceramide. Phosphorylated peptide was resolved by HPLC. Values (means) represent data from three experiments.
# Concentration-dependence of ceramide-induced ^32 Pi incorporation into EGFR peptide. Peptide phosphorylation reactions were done as described for FIG. 2, for 2 minutes, using various concentrations of ceramide (0.001-3 μM). Phosphorylated peptide was resolved by HPLC. Values (means) represent data from three experiments. […]
# Phosphorylation was initiated at 22° C. by addition of 50 μl of [γ-^32 P] ATP (150 μM final concentration; 4000 dpm/pmol). For studies with lipid activators, ceramide and other lipids were dried under N2 and resuspended in the kinase assay buffer by bath sonication for 2 minutes at 37° C.
# Phosphorylated peptide was quantified by two separate methods. For initial studies, samples were spotted on phosphocellulose paper, washed in 1 M acetic acid/4 mM pyrophosphate and subjected to liquid scintillation counting, according to methods well known to those skilled in the art. Values obtained from a boiled blank or a sample lacking peptide were subtracted from each determination. Alternatively, HPLC was done according to methods well known to those skilled in the art. For these studies, samples were first applied to a C18 Sep-Pak cartridge and eluted with 99.9% acetonitrile/0.1% trifluoroacetic acid. The eluates were lyophilized, resuspended in 6 M guanidine hydrochloride/200 mM Tris, pH 8.5 and applied to a C18 reverse-phase column (Dynamax, 4.6 mm i.d., Rainin, Woburn, Mass.). The peptide was eluted with a linear gradient (1% per minute) of acetonitrile at a flow rate of 1 ml/minute and was detected by measuring the Cerenkov radiation associated with 1-ml fractions.
# Raf-1 [4] = experiment: Kinase activity of immunoprecipitated Raf-1 toward MEK1 after HL-60 cell stimulation; format: cell-based, human (HL-60 cells)
# Protocol: Recovery of MEK1 was monitored by western blot (Bottom Panel). Identical results were obtained with cells stimulated for 5 min with TNF.
# Recovery of MEK1 was monitored by western blot (Bottom Panel).
# These studies indicate that Raf-1 is a component of the sphingomyelin pathway mediating TNF action.
# MEK1 autophosphorylation was for 45 min. An autoradiogram of MEK1 phosphorylation (top panel) and recovery of MEK1 protein by western blot (bottom panel) are shown. For western blot, proteins separated by SDS-PAGE were electrotransferred to an Immobilon PVDF membrane at 12 volts overnight at 4° C. Membranes were then blocked with 2% BSA in TBS [20 mM Tris, pH 7.6, 137 mM NaCl] for 1 hr and washed with TBST (TBS containing 0.2% Tween-20).
# Raf-1 [5] = experiment: Raf-1 phosphorylation in intact HL-60 cells; format: cell-based, human (HL-60 cells); details: TNF 1 nM; ceramide; sphingomyelinase 10 mU/ml
# Protocol: To examine this possibility, intact HL-60 cells were metabolically labeled with ^32 P-orthophosphate for 4 hr followed by stimulation with TNF for the indicated times (FIG. 20A). […] Raf-1 proteins were resolved by SDS-PAGE and autoradiographed.
# FIG. 20A--300×10^6 cells were resuspended at 37° C. in 15 ml of serum-free phosphate-free RPMI medium ([…]) containing 6 mCi ^32 P-orthophosphate. After […], cells were resuspended into the same buffer without radiolabel (5×10^7 /point) and stimulated with TNF (1 nM). At the indicated times, ice-cold serum-free phosphate-free RPMI was added and cells were homogenized as described in FIG. 17 in RIPA lysis buffer. Cell debris was removed by centrifugation at 700×g for 5 min. […] After SDS-PAGE, Raf-1 was transferred to an Immobilon PVDF (Millipore) membrane according to the vendor's instructions. […] The data (CPM/Raf protein) are presented as fold of control and represent one of three studies performed in triplicate.
# [6] = test system: ceramide-activated protein kinase; details: ceramide 0.001 to 3 μM, of the control, ref. [40]; cited from earlier work
# Raf-1 [7] = experiment: Activation of Raf-1 by KSR in vitro (MEK1 phosphorylation)
# [8] = test system: ceramide-activated protein kinase; details: treatment of intact cells; literature; cited from earlier work
Substance,Raf-1 activation in COS-7 cells co-expressing KSR (Raf-1 [1]),"enhancement of kinase activity, of control [2]",duration of stimulation ([3]; 0.5 μM ceramide),onset of stimulation of EGFR peptide phosphorylation ([3]; 0.5 μM ceramide),"increase in kinase activity ([3]; 0.5 μM ceramide, by 30 s)",lowest effective concentration ([3]; 2 minutes of stimulation),"EGFR peptide phosphorylation, fold of control ([3]; 2 minutes of stimulation, maximal effect for ceramide at 1 μM)","EC50 ([3]; 2 minutes of stimulation, read-out: ED50 for EGFR peptide phosphorylation)",concentration inducing maximal phosphorylation ([3]; EGFR peptide phosphorylation),"lowest effective concentration ([3]; EGFR peptide phosphorylation, A-431)",effect on EGFR peptide phosphorylation ([3]; words),effect on kinase activity of Raf-1 toward MEK1 (Raf-1 [4]),Raf-1 phosphorylation in intact HL-60 cells (Raf-1 [5]),maximum enhancement of kinase activity [6],KSR-dependent Raf-1 activity toward MEK1 in vitro (Raf-1 [7]),activation of Raf-1 by ceramide in the absence of KSR (Raf-1 [7]),enhancement of CAP kinase autophosphorylation / activity [8]
Raf-1(T268V),as effectively as wild type Raf-1,,,,,,,,,,,,,,,,
Raf-1(T269V),not activated,,,,,,,,,,,,,,,,
ceramide,,1.5-2.5 of control,at least 15 minutes,≤ 30 s,2 fold,1 nM,2.1 fold of control,~0.03 µM,1 µM,1 nM,similarly effective,similarly enhanced activity toward MEK1,similarly induced Raf-1 phosphorylation,two-fold,markedly enhanced,not stimulated,5-10 fold
